# Data from US20180193361A1, “GUT ANTI-INFLAMMATORY AGENTS FOR REGULATION OF HIGH BLOOD GLUCOSE LEVELS” (UNIVERSITY HEALTH NETWORK, priority 2015, published 2018).
# How the values were obtained:
# [1] = system: gluconeogenesis enzyme and adipogenesis-related genes; experiment: q-PCR of gluconeogenesis and adipogenesis genes, HFD or HFD 5-ASA mice; assay type: in vivo
# Excerpt: We extracted total RNA from isolated or cultured cells using a RNeasy Mini Kit (Qiagen), and for subcutaneous adipose tissue (SAT) and VAT we used a RNeasy Lipid Extraction kit (Qiagen). We reverse-transcribed the RNA by random primers with M-MLV (Invitrogen). We performed q-PCR with a 7900HT PCR system (Applied Biosystems) using SYBR® Green master mix reagent (Applied Biosystems). We assessed expression of adipocyte P2 (aP2), CCAAT/enhancer-binding protein-α (CEBPα), Peroxisome proliferator-activated receptor-γ (PPARγ), and sterol regulatory element-binding protein (SREBP) cDNA. […] We calculated relative fold changes in gene expression normalized to 18s or GAPDH by the ΔΔCT method using the equation 2-ΔΔCT. The results are shown as fold changes compared to the control group.
# [2] = system: small bowel T cells; experiment: In vitro IFNγ secretion, anti-CD3/CD28-activated small bowel T cells; assay type: cell-based; settings: T cells from HFD-fed WT mice, 72 hour; 5-ASA 0.1 mM; rosiglitazone 0.1, 1 and 10 μM
# Description: (§1) To measure the effect of IFNγ on tight-junction gene expression, we treated MODE-K cells with recombinant mouse IFNγ (Biolegend). We purified bulk dendritic cells and T cells from murine small bowels and spleens using a negative selection DC or T cell isolation kit (Stem Cell Technologies). We plated T cells at 5×10^5 cells/well with plate-bound anti-CD3/CD28 (1 μg/ml, Biolegend). […] We collected supernatants for cytokine measurements after 72 hour incubation. […] After 24 hours, we washed the cells with PBS and co-cultured them (1×10^4 cells/well) with OVA323-339 peptide and OT-II splenic or small bowel T cells (5×10^4 cells/well) for 48 hours. Supernatants were collected at 48 hours for cytokine measurement. We measured serum cytokines by Luminex Multiplex cytokine assay (Millipore, run by the UHN Microarray Center), and quantified IL-10 and IFN-γ in supernatants of anti-CD3/CD28-stimulated splenocytes or bowel immune cells (Winer et al., 2009b) by ELISA (Biolegend).
# [3] = system: bowel and VAT immune cell populations; experiment: Immune cell populations in NCD vs NCD 5-ASA mice; assay type: in vivo; settings: bowels or VATs, NCD 5-ASA vs untreated NCD mice
# Excerpt: Isolation of bowel immune cells. For isolation of small intestine lamina propria immune cells, we used the protocol described by Fritz et al (Fritz et al., 2012), and processed approximately 10 cm from the distal end of the small intestine (jejunum and ileum). For the isolation of colonic lamina propria immune cells, we used the protocol described by Geddes et al (Geddes et al., 2011). Following lamina propria isolations, we passed immune cells through 70 μm strainers, and used them for flow cytometry.
# We isolated VAT-associated immune cells as previously described (Winer et al., 2009a).
# We stained single cell suspensions for 30 min on ice with commercial antibodies. Flow cytometry antibodies including CD45.2 (104), CD3 (145-2C11), CD4 (GK1.5), CD8 (53-6.7), CD25 (PC61), γδTcR (GL3), Foxp3 (150D), IL-17 (TC11-18H10.1), IFNγ XMG1.2), α4β7 (DATK32), CCR9 (CW-1.2), CD11b (M1/70), F4/80 (BM8), CD11c (N418), CD206 (C068C2), Gr-1 (RB6-8C5), IL-7Rα (A7R34), B220 (RA3-6B2), Thy1.2 (30-H12), NKp46 (29A1.4), and Sca-1 (D7) were purchased from Biolegend. Intracellular staining was performed using a Foxp3 staining buffer kit (eBioscience). We acquired data on a Fortessa flow cytometer (BD Biosciences) and analyzed it with FlowJo software (Tree Star). We gated ILCs as described (Kirchberger et al., 2013).
# [4] = system: splenic T cells; experiment: In vitro IFNγ secretion, anti-CD3/CD28-activated splenic T cells; assay type: cell-based; settings: splenic T cells from HFD-fed WT mice, 72 hour; 5-ASA 0.1 mM
# Description: as §1
# [5] = system: HFD-fed C57BL/6 mice; experiment: Food intake and metabolic cage studies, HFD or HFD 5-ASA; assay type: in vivo; settings: HFD vs HFD 5-ASA, 14 weeks
# Description: Mice. Mice were fed either NCD (15 kcal % fat) or HFD (Research Diets, 60 kcal % fat, irradiated) starting at 6 weeks of age. All studies were performed under the approval of Animal User Protocols by the Animal Care Committee at the University Health Network. Mice were maintained in a pathogen-free, temperature-controlled environment on a 12-hour light and dark cycle. All mice used in comparative studies were male, age-matched, and litter mates where possible. […] We confirmed T cell-specific floxing of the PPARγ gene in Lck-Cre+ PPARγfl/fl mice by qPCR with a minimum of at least 90% reduction in PPARγ expression. […] We placed mice in automated metabolic cages (Oxymax Systems, Columbus Instruments) for 48 hours with airflow held constant at 0.5 L/min. (Revelo et al., 2014). […] We measured metabolic activity using indirect calorimetry, recording maximal O2 consumption (VO2), CO2 production (VCO2), and heat production normalized to body weight. Respiratory exchange ratio (RER) was calculated as […]. The data shown are calculated for light and dark measurements as an average over 24 hours by combining light and dark measurements. Ambulatory activity was measured by the breaking of infrared laser beams in the XY plane.
smiles,measurement,setting,value
"Nc1ccc(O)c(C(=O)O)c1 [5-ASA, 5-aminosalicylic acid]",gluconeogenesis enzyme gene expression,[1]; HFD vs HFD 5-ASA 1500 mg/kg/day,could not detect significant changes
same,expression of adipogenesis-related genes,"[1]; VAT or SAT, HFD 5-ASA relative to HFD, 18 weeks of diet",no effects
same,IFNγ production,[2],significantly reduced
same,significant anti-inflammatory effects on immune cell populations,[3],not seen
same,IFNγ production,[4],not
same,carbon dioxide output,[5],no difference
same,food intake,[5],no difference
same,oxygen consumption,[5],no difference
